This is an account of results in patent US20250206758A1, “SUBSTITUTED BRIDGED RING INHIBITOR, PREPARATION METHOD THEREFOR AND APPLICATION THEREOF” (SUZHOU ZELGEN BIOPHARMACEUTICALS CO., LTD., priority 2022, published 2025).

For one data set, the system named is GP2D. The experiment in a line: Cell proliferation inhibition, GP2D (CellTiter-Glo 3D, 7 days). Format: cell-based. The settings on record: 168 h. In a few lines: (§1)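 Cells exposed to compound (final DMSO 0.5%) in duplicate for 7 days at 37 °C, 5% CO2, then CellTiter-Glo 3D added with 20 min shaking and 2 h dark incubation before luminescence. Inhibition normalized to medium and blank controls; IC50, minimum and maximum inhibition from curve fits.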
Background: Cellular ATP, detected with luciferase, serves as a proxy for viable cell number.

A further data set concerns AGS. In words: Cell proliferation inhibition, AGS (CellTiter-Glo 3D, 7 days). The format is cell-based. Particulars: Homo sapiens, 168 h. On the procedure: • (a) Resuscitating cells in T75 cell culture flask: • (b) When the cell confluence reaches 80-90%, subculturing the cells.
The diluted test compound was added to a 384-well cell culture plate with a nanoliter pipetting system, and duplicate wells were set up. An equal volume of culture medium was added to the positive control group; and an equal volume of DMSO was added to the negative control group, then centrifugation was conducted at 1000 rpm for 1 min at room temperature.
Cells were inoculated into a) 384-well culture plate, with an equal volume of cells added to the negative control group, and only an equal volume of culture medium added to the positive control group. The plate was centrifuged at 1000 rpm for 1 min at room temperature, and the final DMSO concentration of the compound was 0.5% at last. The plate was placed in a 37° C., 5% CO2 constant temperature incubator for 7 days.
20 μL/well of CellTiter-Glo® 3D to b) was added to 384-well cell culture plate, and the plate was shook at 320 rpm for 20 min in the dark, and incubated at room temperature in the dark for 2 hrs.
The luminescence value was read using an Envision multi-functional microplate reader.
The inhibition rate (IR) of the test compound was calculated using the following formula: IR (%)=(1−(RLU compound−RLU blank control)/(RLU meidum control−RLU blank control))*100%. The inhibition rates of different concentrations of compounds were calculated in Excel, and then the inhibition curves were plotted and the related parameters (including the minimum inhibition rate, maximum inhibition rate and IC50) were calculated using GraphPad Prism software.

A further data set deals with AsPC-1. The experiment in a line: Cell proliferation inhibition, AsPC-1 (CellTiter-Glo 3D, 7 days). The format is cell-based. The settings on record: Homo sapiens, ASPC1, 168 h; AsPC-1, 7 days. Summed up: as §1
Another data set can be described thus: in vivo. The settings on record: male, ICR, mouse, po, 30 mg/kg.
Data set [1] concerns ERK phosphorylation in KRAS^G12D mutant cells (AGS). In words: AGS ERK phosphorylation inhibition experiment. The format is cell-based. The settings on record: 1 hour compound, hEGF 10 minutes. On the procedure:
(§2) KRAS^G12D mutant cells (such as GP2D, AGS, etc.) were seeded in a 384-well plate and cultured overnight in a 37° C., 5% CO2 incubator.
(§3) 200 nL of diluted compound was added with Echo 500 to a final DMSO concentration of 0.5%, and cultured in a 37° C., 5% CO2 incubator for 1 hour. Then hEGF was added for acting for 10 minutes.
(§4) The culture medium was discarded, and then cell fixative was added to fix the cells.
(§5) The cells were washed once with PBS, and then incubated with cold 100% methanol.
(§6) Methanol was removed and the cells were washed with PBS.
(§7) PBS was removed, and each well was added with Li-Cor blocking buffer, and blocked at room temperature for 1 hr.
(§8) The blocking solution was removed, and primary antibody mixture was added to each well, and incubated at […] 4° C. overnight.
(§9) The primary antibody mixture was removed, and the cells were washed by adding PBST for 3 times.
(§10) Secondary antibody mixture was added and incubated at room temperature in the dark for 45 min.
(§11) The secondary antibody mixture was removed, and the cells were washed by adding PBST for 3 times. Finally, PBST was suctioned out, and the plate was centrifuged upside down at 1000 rpm for 1 min.
(§12) The plate was read by Odyssey CLx.

The test system of data set [2] is ERK phosphorylation in KRAS^G12D mutant cells (GP2D). The experiment in a line: GP2D ERK phosphorylation inhibition experiment. The format is cell-based. Particulars: 1 hour compound, hEGF 10 minutes. On the procedure:
as §2, §3, §4, §5, §6, §7, §8, §9, §10, §11, §12

A short description of data set [3]: Pharmacokinetic test evaluation in mice, oral. Particulars: male ICR mice, oral 30 mg/kg, plasma.
Procedure: (§13) Male ICR mice, weighing 22-24 g, were fasted overnight and orally administered with 30 mg/kg of a solution of the compound of the present invention or the control compound [10% DMSO+60% PEG400+30% aqueous solution]. Blood was collected at 0.25, 0.5, 1.0, 2.0, 4.0, 6.0, 8.0, 12.0 and 24 h after administration of the compound of the present invention respectively, and the concentration of the compound of the present invention or the control compound in plasma was determined by LC/MS/MS.

Procedure for in vivo: as §13

As usually defined, the IC50 is the concentration that gives 50% inhibition. Higher therefore signals lower potency. As a reminder, the AUC(0-inf) is the area under the concentration-time curve extrapolated to infinity. Low values mean less exposure, high ones more exposure. Usually AUC(0-t) stands for exposure summed from dosing to a finite time, without extrapolation to infinity. Lower therefore signals less exposure. Broadly, the Cmax is the highest concentration seen after dosing. The term Tmax denotes the time from dosing to the highest level. One may read the half-life as the time in which the quantity being followed falls by half. Low values mean rapid decline, high ones slow decline. In the data set with GP2D, `Nc1cc(Cl)c(C(F)(F)F)c(-c2ncc3c(N4C[C@H]5CC[C@@H](C4)N5)nc(OC[C@@]45CCCN4C[C@@]4(CC4(F)F)C5)nc3c2F)c1` [Example 27, 3-(4-((1R,5S)-3,8-diazabicyclo[3.2.1]octan-3-yl)-2-(((1S,7a'S)-2,2-difluorodihydro-1′H,3′H-spiro[cyclopropan-1,2′-pyrrolizin]-7a′(5′H)-yl)methoxy)-8-fluoropyridino[4,3-d]pyrimidin-7-yl)-5-chloro-4-(trifluoromethyl)aniline] came in with an IC50 of 0.38 nM. The same compound showed an IC50 in the data set with AGS of 5.24 nM. The compound further had an IC50 in the data set on AsPC-1 of 4.14 nM. In the data set “in vivo”, the total exposure AUC(0-inf) was 5650 ng·h/mL, the AUC(0-t) is 5090 ng·h/mL, the highest level (Cmax) was 953 ng/mL and the Tmax stood at 0.25 h. Further, in “in vivo”, the half-life is 9.32 h.

On to `C#Cc1c(F)ccc2cc(O)cc(-c3ncc4c(N5C[C@H]6CC[C@@H](C5)N6)nc(OC[C@@]56CCCN5[C@H](COC)CC6)nc4c3F)c12` [Example 1 Isomer 2B, 4-(4-((1R,5S)-3,8-diazabicyclo[3.2.1]octan-3-yl)-8-fluoro-2-((3S,7aS)-(3-(methoxymethyl)tetrahydro-1H-pyrrolizin-7a(5H)-yl)methoxy)pyridino[4,3-d]pyrimidin-7-yl)-5-ethynyl-6-fluoronaphthalen-2-ol], for which the concentration for half-maximal inhibition (IC50) in data set [1] (Homo sapiens) was 139 nM.

In data set [1], `C#Cc1c(F)ccc2cc(O)cc(-c3ncc4c(N5C[C@H]6CC[C@@H](C5)N6)nc(OCC56CCCN5CC5(C6)CC5(F)F)nc4c3F)c12` (single isomer, unassigned) [Example 16B] had an IC50 of 3.34 nM.

As to `C#Cc1c(F)ccc2cc(O)cc(-c3ncc4c(N5CC6CCC(C5)N6)nc(OCC56CCCN5CC5(CC5)C6)nc4c3F)c12` [Example 9, 4-(4-(1R,5S)-3,8-diazabicyclo[3.2.1]octan-3-yl)-2-(dihydro-1′H,3′H-spiro[1,2′-pyrrolizin]-7a′(5′H)-yl)methoxy)-8-fluoropyridino[4,3-d]pyrimidin-7-yl)-5-ethynyl-6-fluoro-naphthalen-2-ol], in data set [1] (Homo sapiens), the IC50 amounted to 8.2 nM.

Take `C#Cc1c(F)ccc2cc(O)cc(-c3ncc4c(N5C[C@H]6CC[C@@H](C5)N6)nc(OC[C@]56CCCN5[C@@H](COC)CC6)nc4c3F)c12` [Example 1 Isomer 2A, 4-(4-((1R,5S)-3,8-diazabicyclo[3.2.1]octan-3-yl)-8-fluoro-2-((3R,7aR)-(3-(methoxymethyl)tetrahydro-1H-pyrrolizin-7a(5H)-yl)methoxy)pyridino[4,3-d]pyrimidin-7-yl)-5-ethynyl-6-fluoronaphthalen-2-ol]: the IC50 in data set [1] (Homo sapiens) amounted to 19 nM.

As for `C#Cc1c(F)ccc2cc(O)cc(-c3ncc4c(N5C[C@H]6CC[C@@H](C5)N6)nc(OCC56CCCN5CC5(C6)CC5(F)F)nc4c3F)c12` (single isomer, unassigned) [Example 16A], the IC50 in data set [1] was 10.6 nM.

`C#Cc1c(F)ccc2cc(O)cc(-c3ncc4c(N5C[C@H]6CC[C@@H](C5)N6)nc(OC[C@]56CCCN5[C@H](COC)CC6)nc4c3F)c12` [Example 1 Isomer 1A, 4-(4-((1R,5S)-3,8-diazabicyclo[3.2.1]octan-3-yl)-8-fluoro-2-((3S,7aR)-(3-(methoxymethyl)tetrahydro-1H-pyrrolizin-7a(5H)-yl)methoxy)pyridino[4,3-d]pyrimidin-7-yl)-5-ethynyl-6-fluoronaphthalen-2-ol]: the IC50 in data set [1] (Homo sapiens) came to 9.67 nM; in data set [2], 2.6 nM.

Take `C#Cc1c(F)ccc2cc(O)cc(-c3ncc4c(N5CC6CCC(C5)N6)nc(OC[C@@]56CCCN5C[C@H](F)C6)nc4c3F)c12` [MRTX1133, reference compound]: in data set [3], the “AUC0-∞” value is on record as “BLOQ”, the AUC(0-t) entry is “BLOQ” and the Cmax result is listed as “BLOQ”. This compound also displayed an IC50 with GP2D of 1.28 nM. The compound further had an IC50 in the data set on AGS of 5.15 nM. This compound also registered an IC50 with AsPC-1 of 6.77 nM.

With `C#Cc1c(F)ccc2cc(O)cc(-c3ncc4c(N5C[C@H]6CC[C@@H](C5)N6)nc(OC[C@@]56CCCN5[C@@H](COC)CC6)nc4c3F)c12` [Example 1 Isomer 1B, 4-(4-((1R,5S)-3,8-diazabicyclo[3.2.1]octan-3-yl)-8-fluoro-2-((3R,7aS)-(3-(methoxymethyl)tetrahydro-1H-pyrrolizin-7a(5H)-yl)methoxy)pyridino[4,3-d]pyrimidin-7-yl)-5-ethynyl-6-fluoronaphthalen-2-ol], the IC50 in data set [1] (Homo sapiens) is 3.76 nM; in data set [2], 2.1 nM.

Regarding `N#Cc1c(N)ccc(Cl)c1-c1ncc2c(N3C[C@H]4CC[C@@H](C3)N4)nc(OC[C@@]34CCCN3C[C@@]3(CC3(F)F)C4)nc2c1F` [Example 51, 2-(4-((1R,5S)-3,8-diazabicyclo[3.2.1]octan-3-yl)-2-(((1S,7a'S)-2,2-difluorodihydro-1′H,3′H-spiro[cyclopropan-1,2′-pyrrolizin]-7a′(5′H)-yl)methoxy)-8-fluoropyridino[4,3-d]pyrimidin-7-yl)-6-amino-3-chlorobenzonitrile], the figures for the IC50 in the data set with GP2D, in the data set with AGS and in the data set on AsPC-1 were greater than 100 nM, greater than 1000 nM and greater than 1000 nM, respectively.
